Assay results reported in US20260102413A1, “TREATING PAIN ASSOCIATED WITH CENTRAL SENSITIZATION” (Medicon Pharmaceuticals, Inc., priority 2022, published 2026).

What was measured:
[1] = tested on: mice with paclitaxel-induced neuropathic pain (CIPN); assay: von Frey paw withdrawal threshold (mechanical allodynia), paclitaxel-induced CIPN / central sensitization, treatment of established pain, topical test compounds; type: in vivo, mouse
Experimental: Paw withdrawn, licking or shaking were considered positive responses.
(§1) The first doses were administered 5 days after the last administration of paclitaxel (i.e., at day 0).
The PWT test was performed prior to the administration of paclitaxel (day −8) to establish the threshold in mice without neuropathic pain associated with CIPN (the value shown is an average of the PWT in all groups at day −8).
Pain associated with CIPN was established in line with the experiments disclosed herein. Mice were treated with naproxen 2.4% (equimolar to PN 5%), aspirin 1.7% (equimolar to PA2 5%); or ibuprofen 2.5% (equimolar to PI 5%) or vehicle applied topically to both hind paws 3×/day for 14 days.
CIPN was induced in mice with chemotherapeutic agents using established protocols (Carozzi et al, 2010; Currie et al, 2019; Eldridge et al, 2020).
The first doses were administered 1 day after the last administration of paclitaxel (i.e., at day 0).
as §1
The PWT test was performed on day 21, at the end of the experiment, but was also additionally determined on day 14 for LXIX.

[2] = tested on: mice with paclitaxel-induced CIPN; assay: von Frey PWT, paclitaxel CIPN model, orally administered compounds; type: in vivo, mouse; details: mouse, in vivo
Excerpt: CIPN was induced in mice with chemotherapeutic agents using established protocols (Carozzi et al, 2010; Currie et al, 2019; Eldridge et al, 2020). […] This dosing regimen of paclitaxel produces pain associated with CIPN with time courses that are similar to those of pain after paclitaxel administration in cancer patients.
Group 1: naïve mice (i.e. no paclitaxel, n=8) • 2. Group 2: paclitaxel only (n=8) • 3. Group 3: paclitaxel plus vehicle (n=8) • 4. […] Group 5: paclitaxel pluse sulindac (n=8)
The PWT test was performed on day 7.
Phospho-naproxen (PN) and naproxen were given by oral gavage, three times a day for 7 days. Their doses were as follows: PN, 65 mg/kg; naproxen, 35 mg/kg (equimolar to PN). The response of mechanical allodynia to phospho-naproxen (PN) and naproxen was tested on day 7.
(§2) This dosing regimen of paclitaxel produces pain associated with CIPN with time courses that are similar to those of pain after paclitaxel administration in cancer patients.
Phospho-ibuprofen (PI) (Formula III), phospho-glycerol-ibuprofen (PGI) (Formula LXXI), phospho-ibuprofen-amide (PIA) (Formula XI), and ibuprofen were given by oral gavage, three times a day for 6 days. Their doses were as follows: ibuprofen, 40 mg/kg; PI, 80 mg/kg; PIA, 80 mg/kg; all three were equimolar.
The response of mechanical allodynia to these compounds was tested on day 6, using the PWT test.
as §2
NO-sulindac (Formula XLIV), HS-sulindac (Formula XXXIV), platinum-sulindac (Formula LXVII), and NOSH-1 (Formula LIX) were given by oral gavage, three times a day throughout the study period. Their doses were all 100 mg/kg.
The response of mechanical allodynia to these compounds was tested on the days set out in the table below, via the PWT test.
LXIX was given by oral gavage, once a day for 14 days at a dose of 100 mg/kg.
The response of mechanical allodynia to these compounds was tested on day 14, via the PWT test.

[3] = tested on: mice with chronic constriction injury of the left sciatic nerve (PTPN); assay: von Frey PWT, chronic constriction injury (CCI) model of PTPN, topical compounds; type: in vivo, mouse; details: PI, PN 5% on left hind paw 3x/day 14 days; day 14
Experimental: The PWT test was performed following ligation, but prior to treatment to determine baseline values. The PWT was then further measured on day 14.

[4] = tested on: mice with NTG-induced migraine; assay: von Frey PWT, NTG-induced migraine model, oral or intraperitoneal compounds; type: in vivo, mouse; details: mouse, in vivo
Experimental: Phosphonaproxen (Formula VIII), and its parent compound, naproxen, were administered orally to each mouse group. All compounds were administered at equimolar doses. In particular, phosponaproxen was administered at 65 mg/kg, and naproxen was administered at 35 mg/kg, 30 minutes after NTG administration. The response of mechanical allodynia was tested 30 minutes after administration.

in vivo = details: Sprague-Dawley, rat, po, 95 mg/kg; for AUC(0-t): AUC0-24 h; for AUC(0-t) / Cmax / Tmax: single oral dose PN 95 mg/kg, rats
Experimental: Approximately 800 μL of blood were collected through cardiac puncture and immediately centrifuged.
Tissue samples were harvested using separate dissection instruments for each tissue sample to avoid cross contamination, and snap frozen. The levels of the test drug were determined by HPLC.
As previously described (Wen et al, 2019), each plasma sample was mixed with double volume of acetonitrile and centrifuged at 13,200 rpm for 15 min. Tissue samples were weighed, ddH2O (100-300 μL, depending on tissue weight) was added, and they were homogenized. Following addition of acetonitrile (twice the volume of the homogenate), the mixture was sonicated for 10 min, centrifuged at 13,200 rpm for 15 min, and analyzed by HPLC, as reported (Wen et al, 2019).
It was performed following a previously reported method (Xie et al, 2012). Briefly, the HPLC system consisted of a Waters Alliance 2695 Separations Module (Milford, MA, USA) equipped with a Waters 2998 photodiode array detector (328 nm) and a Thermo Hypersil BDS C18 column (150×4.6 mm, particle size 3 μm). The mobile phase consisted of a gradient between solvent A (formic acid, CH3CN, H2O (0.1:4.9:95 v/v/v)) and solvent B (CH3CN) at a flow rate of 1 mL·min−1 at 30° C. We applied gradient elution from 30 to 100% solvent B from 0-6 min, and it was maintained at 100% solvent B until 8 min.
The methods are identical to those used in Example 27.
A single dose of PN or PSA was given by oral gavage to groups of three Sprague-Dawley rats, which were euthanized and dissected according to the early example. The oral gavage solution of phosphonaproxen was prepared by dissolving in 10% DMSO and then suspending it in corn oil.

CCOP(=O)(OCC)OCCCCOC(=O)C(C)c1ccc2cc(OC)ccc2c1 (stereo not shown) [PN, phospho-naproxen]
Paw-withdrawal threshold, g Mean ± SEM, Day 0 ([1]; group value after paclitaxel, before study drug): 0.64 ± 0.06 g
Paw-withdrawal threshold, g Mean ± SEM, Day 14 ([1]; mouse, in vivo): 1.19 ± 0.09 g
PWT, g Mean ± SEM [2]: 0.66 ± 0.03 g
PWT, g Mean ± SEM [3]: 1.70 ± 0.12 g
PWT, g Mean ± SEM [4]: 1.48 ± 0.22 g
half-life (in vivo): 540 min
AUC(0-t) (in vivo; blood): 1.7 µM·h
AUC(0-t) (in vivo; cerebellum): 3.1 µM·h
AUC(0-t) (in vivo; medulla): 6.9 µM·h
AUC(0-t) (in vivo; stomach): 4340 µM·h
AUC(0-t) (in vivo; vagus nerve): 63.1 µM·h
Cmax (in vivo; blood): 3.5 ± 1.2 µM
Cmax (in vivo; cerebellum): 1.2 ± 0.02 µM
Cmax (in vivo; medulla): 3.1 ± 0.6 µM
Cmax (in vivo; stomach): 717.2 ± 5 µM
Cmax (in vivo; vagus nerve): 24.2 ± 3.1 µM
Tmax (in vivo; blood): 60 min
Tmax (in vivo; cerebellum): 30 min
Tmax (in vivo; medulla): 30 min
Tmax (in vivo; stomach): 60 min
Tmax (in vivo; vagus nerve): 30 min
hydrolysis by carboxylesterases, times slower than PS (carboxylesterases): about 5 times
